The source of these data is patent publication US20250263370A1 (Tay Therapeutics Limited, priority 2022, published 2025).

The target in one series is BRD4 BD1 (Homo sapiens (Human), UniProt O60885). In words: NanoBRET bromodomain assay, NanoLuc-BRD4-BD1 fusion in HEK293 cells. To be noted: top concentration 10 μM. Format: cell-based. (In BRET a luciferase serves as donor, and the signal depends on an acceptor being close.)
Series [1] is described as follows: Intrinsic clearance in liver microsomes, rat. Format: in vitro ADME. Conditions: rat, liver microsomes, pH 7.4, rat liver microsomes, read-out: Half-Life (T1/2) (min), Rat. How it is done:
From stock solution of compound on 10 mM DMSO, a working solution of 0.1 mM is prepared by diluting the compound in DMSO. 6.25 μL of a 20 mg/mL solution of microsomes in PBS pH 7.4 buffer is added to 216.25 μL PBS pH 7.4 buffer (final microsome concentration—0.5 mg/mL). 25 μL of 10 mM solution of NADPH in PBS pH 7.4 buffer is added to the incubations (final NADPH concentration—1 mM). The mixture is pre-warmed to 37° C. for 10 minutes. 2.5 μL of test compound working solution is added (final compound concentration—1 μM with 1% DMSO). Aliquots of 30 μL are taken from the reaction solution at 0.5, 5, 15, 30 and 60 minutes. The reaction was stopped by the addition of 5 volumes of cold acetonitrile with IS (100 nM alprazolam, 200 nM caffeine and 100 nM tolbutamide). Samples were centrifuged at 3, 220 g for 40 minutes. Aliquots of 100 μL of the supernatant are mixed with 100 μL of ultra-pure H2O and used for LC-MS/MS analysis. The percent compound remaining at each time point is calculated with respect to that of the 0.5 min sample. The data are analysed to calculate half-life. Control experiments are run without NADPH and blank samples are prepared using DMSO without the test compound.
A 50 mM stock solution (in DMSO) is prepared for the compound. From the stock solution, a working solution of 0.5 mM is prepared by diluting the compound in DMSO. This concentration of working solution is prepared considering a final concentration of 1 uM with 0.1% DMSO. The compound (1 μL of working solution) is spiked in PBS with pH 7.4 ([…]) at a concentration of 1 μM. Subsequently, 110 μL of 10 mM NADPH is added (as a co-factor). The sample is incubated at 37° C. for 15 min. Following this, pre-warmed liver microsomes (27.5 μL; final protein conc. 0.5 mg/mL) are added. The samples are then incubated at 37° C. Aliquots of samples are withdrawn at 0, 5, 15, 30, 45 and 60 min. The reaction is stopped by using chilled acetonitrile containing internal standard. The samples are centrifuged, and the supernatants analysed by LC-MS/MS. The percent compound remaining at each time point is calculated with respect to that of the 0 min sample. The data are then analysed to calculate half-life and intrinsic clearance (CLint). Control experiments are run without NADPH and blank samples are prepared using DMSO without the test compound.
(Microsomes from liver hold many membrane-bound enzymes, among them those of drug oxidation.)

Series [2] can be described thus: Sprague-Dawley rat pharmacokinetics, IV and PO cassette dosing. To be noted: Method 1; for IV T1/2: IV 1 mg/kg; for PO F: PO 5 mg/kg. The class given is in vivo. As to the method:
Compounds were formulated in 5% DMSO, 40% PEG-400, 55% Milli-Q water at a concentration of 0.2 mg/mL for IV and at 0.5 mg/mL for PO. Two male Sprague-Dawley rats per arm were dosed with up to 5 compounds in cassette mode, which each compound being dosed at 1 mg/kg IV and 5 mg/kg PO. Blood was sampled at various timepoints and plasma isolated. 50 μL of plasma with 5 μL of blank Sprague-Dawley rat plasma were added to 200 μL of acetonitrile containing IS mixture. The samples were vortexed for 30 s. After centrifugation at 4 degrees Celsius, 3900 rpm for 15 min, the supernatant was diluted 3 times with water. 20 μL of diluted supernatant was injected into the LC/MS/MS system for quantitative analysis and concentration of analyte determined by comparison with matrix matched standard curve. WinNonlin (Phoenix™, version 8.3) or other similar software may be used for pharmacokinetic calculations.

The target of a further series is BRD4 BD2 (Homo sapiens (Human), UniProt O60885). The experiment in a line: NanoBRET bromodomain assay, NanoLuc-BRD4-BD2 fusion in HEK293 cells.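 For all read-outs here: tracer displacement BRET read in transfected cells after 2 h compound exposure at 37 °C, signal in milliBRET units corrected against no-tracer background wells.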 To be noted: for IC50: BRD4 BD2 (IC50), NanoBRET, HEK293 cells, top concentration 10 μM; for Fold selectivity: IC50 for BRD4 BD1 divided by IC50 for BRD4 BD2, qualitative if an IC50 is at the upper limit.
A short description of series [3]: Plasma stability assay, rat plasma. Format: in vitro ADME. To be noted: Method 2 (10 μM). As to the method:
From stock solution of compound in 10 mM DMSO, a working solution of 1 mM is prepared by diluting the compound in DMSO. To 398 μL of plasma pre-warmed at 37° C. for 15 minutes), 2 μL of working solution of compound is added, resulting in a final concentration of 5 μM (0.5% DMSO) for the compound. The sample is then incubated at 37° C. Aliquot is withdrawn at specified time-points (0, 15, 30, 60 and 120 mins). The reaction is stopped by addition of 450 μL cold acetonitrile containing internal standard (IS). […] Aliquots of the supernatant is analysed using LC-MS/MS. The percent remaining of the compound at each time point is calculated with respect to the control sample (0 min time-point).
A working solution of compound (500 μM) is prepared in DMSO (100%). To 735 μL of plasma, 15 μL of working solution of compound is added—resulting in a final concentration of 10 μM (2% DMSO) for the compound. The sample is then incubated at 37° C. Aliquot is withdrawn at time-points—0, 15, 30, 60, 90 and 120 mins. The reaction is stopped by using chilled acetonitrile containing internal standard (IS). The samples are centrifuged and the supernatants analyzed using LC-MS/MS. The percent remaining of the compound at each time point is calculated with respect to the control sample (0 min time-point).

The structures appear in SMILES notation. Read-outs that look alike come from different tables or passages of the source.

By IC50 is commonly meant the point on the concentration scale where inhibition reaches its midpoint. A high value points to a need for much substance. As for `CNC(=O)c1[nH]c(C(=O)N[C@H]2CC[C@H](O)CC2)cc1OC(C)c1ccc(Cl)cc1F` (single isomer, unassigned) [Example 38, 3-(1-(4-chloro-2-fluorophenyl)ethoxy)-N^5-(trans-4-hydroxycyclohexyl)-N^2-methyl-1H-pyrrole-2,5-dicarboxamide], the IC50 on BRD4 BD1 was at least 10000 nM. For the same molecule, the half-life at 1 μM in series [1] (Method 1) is above 60 min. Also, in series [2], the “IV T1/2” value was determined as 1.4 h and the “PO F” value stood at 66%. On BRD4 BD2, the IC50 fell in the range of 50 to 200 nM; the Fold selectivity entry is “XX (Fold >50 and ≤200)”.
Consider `CNC(=O)c1[nH]c(C(=O)NCC(F)(F)F)cc1O[C@@H](C)c1ccccc1` [Example 54, (S)—N^2-methyl-3-(1-phenylethoxy)-N^5-(2,2,2-trifluoroethyl)-1H-pyrrole-2,5-dicarboxamide], for which the half-inhibitory concentration (IC50) against BRD4 BD1 was at least 10000 nM; at BRD4 BD2, 50 to 200 nM. Further, in series [3], the “Plasma Stability (% remaining at 120 minutes), Rat” value was 93%. Further, the half-life at 1 μM in series [1] (Method 2) was above 60 min. For the same molecule, at BRD4 BD2, the Fold selectivity result is “XX (Fold >50 and ≤200)”.
Consider `CCNC(=O)c1cc(OC(C)c2c(F)cccc2F)c(C(=O)NC)[nH]1` (single isomer, unassigned) [Example 55, 3-(1-(2,6-difluorophenyl)ethoxy)-N^5-ethyl-N^2-methyl-1H-pyrrole-2,5-dicarboxamide], for which the “Plasma Stability (% remaining at 120 minutes), Rat” value in series [3] is recorded as 88%. In series [1] (Method 2), the half-life at 1 μM is above 60 min. Further, at BRD4 BD2, the Fold selectivity result is “— (Fold ≥0 and ≤2)”.
At BRD4 BD1, `CCNC(=O)c1cc(OC(C)c2ccc(Cl)cc2F)c(C(=O)NC)[nH]1` (single isomer, unassigned) [Example 41, 3-(1-(4-chloro-2-fluorophenyl)ethoxy)-N^5-ethyl-N^2-methyl-1H-pyrrole-2,5-dicarboxamide] showed an IC50 of at least 10000 nM. In addition, the half-life at 1 μM in series [1] (Method 1) is above 60 min. In series [2], the “IV T1/2” value worked out at 0.3 h and the “PO F” value is 69%. On BRD4 BD2, the IC50 lay within 200 to 1000 nM; the Fold selectivity entry was “X (Fold >2 and ≤50)”.
`CCNC(=O)c1[nH]c(C(=O)NC)c(O[C@@H](C)c2ccccc2F)c1Br` [Example 72, (S)-3-bromo-N^2-ethyl-4-(1-(2-fluorophenyl)ethoxy)-N^5-methyl-1H-pyrrole-2,5-dicarboxamide]: the “Plasma Stability (% remaining at 120 minutes), Rat” value in series [3] is reported as 9%. For the same molecule, the half-life at 1 μM in series [1] (Method 2) was determined as 13 min. Besides, at BRD4 BD2, the IC50 is above 10000 nM; the Fold selectivity result is “— (Fold ≥0 and ≤2)”.
With `CNC(=O)c1[nH]c(C(=O)N[C@H]2CC[C@H](O)CC2)cc1OC(C)c1ccccc1F` (single isomer, unassigned) [Example 45], the “Plasma Stability (% remaining at 120 minutes), Rat” value in series [3] amounted to 88%. For the same molecule, the half-life at 1 μM in series [1] (Method 2) is above 60 min. At BRD4 BD2, the Fold selectivity entry is “XX (Fold >50 and ≤200)”.
Turning to `CNC(=O)c1[nH]c(C(=O)NC2CCC2)cc1OC(C)c1ccccc1F` (single isomer, unassigned) [Example 43, N^5-cyclobutyl-3-(1-(2-fluorophenyl)ethoxy)-N^2-methyl-1H-pyrrole-2,5-dicarboxamide], at BRD4 BD1, the IC50 was at least 10000 nM. For the same molecule, the “Plasma Stability (% remaining at 120 minutes), Rat” value in series [3] stood at 20%. In addition, in series [2], the “IV T1/2” value was found to be 0.5 h and the “PO F” value worked out at 58%. Moreover, at BRD4 BD2, the IC50 is 50 to 200 nM; the Fold selectivity entry is “XX (Fold >50 and ≤200)”.
On to `CNC(=O)c1[nH]c(C(=O)NC2CCC(O)CC2)cc1OC(C)c1ccc(Cl)cc1` (single isomer, unassigned) [Example 29, 3-(1-(4-chlorophenyl)ethoxy)-N^5-(4-hydroxycyclohexyl)-N^2-methyl-1H-pyrrole-2,5-dicarboxamide], for which the “Plasma Stability (% remaining at 120 minutes), Rat” value in series [3] is on record as 89%. Further, in series [1] (Method 1), the half-life at 1 μM was above 60 min. Besides, the Fold selectivity entry on BRD4 BD2 was “XX (Fold >50 and ≤200)”.
